From patent US12077503B2, “Substituted cyclic amides and their use as herbicides” (FMC CORPORATION, priority 2015, dated 2024)

What was measured:
Assay type in all cases: in vivo
[1] = tested on: barnyardgrass (Echinochloa crus-galli); assay: Test A postemergence
From the text: (§1) Seeds of plant species selected from barnyardgrass (Echinochloa crus-galli), Kochia (Kochia scoparia), ragweed (common ragweed, Ambrosia elatior), ryegrass, Italian (Italian ryegrass, Lolium multiflorum), crabgrass, large (Digitaria sanguinalis), giant foxtail (Setaria faberii), green foxtail (Setaria viridis), morningglory (Ipomoea spp.), pigweed (Amaranthus retroflexus), velvetleaf (Abutilon theophrasti), wheat (Triticum aestivum), and corn (Zea mays) were planted into a blend of loam soil and sand and treated preemergence with a directed soil spray using test chemicals formulated in anon-phytotoxic solvent mixture which included a surfactant.
(§2) At the same time, plants selected from these crop and weed species and also blackgrass (Alopecurus myosuroides), and Galium (catchweed bedstraw, Galium aparine) were planted in pots containing the same blend of loam soil and sand and treated with postemergence applications of test chemicals formulated in the same manner. Plants ranged in height from 2 to 10 cm and were in the one- to two-leaf stage for the postemergence treatment. Treated plants and untreated controls were maintained in a greenhouse for approximately 10 d, after which time all treated plants were compared to untreated controls and visually evaluated for injury. Plant response ratings, summarized in Table A, are based on a 0 to 100 scale where 0 is no effect and 100 is complete control. A dash (-) response means no test result.

[2] = tested on: wheat (Triticum aestivum); assay: Test A postemergence
From the text: as §1, §2

corn (Zea mays) = assay: Test A postemergence
From the text: as §1, §2

[3] = tested on: ragweed (common ragweed, Ambrosia elatior); assay: Test A postemergence
From the text: as §1, §2

[4] = tested on: pigweed (Amaranthus retroflexus); assay: Test A postemergence
From the text: as §1, §2

[5] = tested on: ryegrass, Italian (Italian ryegrass, Lolium multiflorum); assay: Test A postemergence
From the text: as §1, §2

Kochia (Kochia scoparia) [6] = assay: Test A postemergence
From the text: as §1, §2

[7] = tested on: giant foxtail (Setaria faberii); assay: Test A postemergence
From the text: as §1, §2

[8] = tested on: Galium (catchweed bedstraw, Galium aparine); assay: Test A postemergence
From the text: as §1, §2

[9] = tested on: blackgrass (Alopecurus myosuroides); assay: Test A postemergence
From the text: as §1, §2

[10] = tested on: barnyardgrass (Echinochloa crus-galli); assay: Test A preemergence; conditions: Preemergence
From the text: as §1, §2

[11] = tested on: ragweed (common ragweed, Ambrosia elatior); assay: Test A preemergence; conditions: Preemergence
From the text: as §1, §2

[12] = tested on: pigweed (Amaranthus retroflexus); assay: Test A preemergence; conditions: Preemergence
From the text: as §1, §2

[13] = tested on: ryegrass, Italian (Italian ryegrass, Lolium multiflorum); assay: Test A preemergence; conditions: Preemergence
From the text: as §1, §2

Kochia (Kochia scoparia) [14] = assay: Test A preemergence; conditions: Preemergence
From the text: as §1, §2

[15] = tested on: giant foxtail (Setaria faberii); assay: Test A preemergence; conditions: Preemergence
From the text: as §1, §2

[16] = tested on: barnyardgrass (Echinochloa crus-galli); assay: Test B flooded paddy test; conditions: Flood, 250 g ai/ha; 0 to 100 scale where 0 is no effect and 100 is complete control; 13 to 15 d
Procedure: (§3) Plant species in the flooded paddy test selected from rice (Oryra sativa), sedge, umbrella (small-flower umbrella sedge, Cyperus difformis), ducksalad (Heteranthera limosa), and barnyardgrass (Echinochloa crus-galli) were grown to the 2-leaf stage for testing. At time of treatment, test pots were flooded to 3 cm above the soil surface, treated by application of test compounds directly to the paddy water, and then maintained at that water depth for the duration of the test. Treated plants and controls were maintained in a greenhouse for 13 to 15 d, after which time all species were compared to controls and visually evaluated. Plant response ratings, summarized in Table B, are based on a scale of 0 to 100 where 0 is no effect and 100 is complete control. A dash (-) response means no test result.

[17] = tested on: ducksalad (Heteranthera limosa); assay: Test B flooded paddy test; conditions: Flood, 250 g ai/ha; 0 to 100 scale where 0 is no effect and 100 is complete control; 13 to 15 d
Procedure: as §3

rice (Oryra sativa) = assay: Test B flooded paddy test; conditions: Flood, 250 g ai/ha; 0 to 100 scale where 0 is no effect and 100 is complete control; 13 to 15 d
Procedure: as §3

[18] = tested on: sedge, umbrella (small-flower umbrella sedge, Cyperus difformis); assay: Test B flooded paddy test; conditions: Flood, 250 g ai/ha; 0 to 100 scale where 0 is no effect and 100 is complete control; 13 to 15 d
Procedure: as §3

[19] = 125 g ai/ha, postemergence, visual injury rating on 0 to 100 scale (0 no effect, 100 complete control), approx. 10 d
[20] = Postemergence, 500 g ai/ha, 0 to 100 scale where 0 is no effect and 100 is complete control
[21] = 125 g ai/ha, visual injury after approximately 10 d, 0 to 100 scale where 0 is no effect and 100 is complete control
[22] = 500 g ai/ha, visual injury approx. 10 d

O=C1NCC(c2c(F)cccc2F)C1C(=O)Nc1cccc(F)c1F (racemic) [Compound 516]
90: Foxtail, Giant plant response rating (0 to 100 scale, 0 is no effect, 100 is complete control) [15, 22]
80: Barnyardgrass plant response rating (0 to 100 scale, 0 is no effect, 100 is complete control) [10, 22]
70: Plant response rating, Barnyardgrass [1, 20] | Plant response rating, Foxtail, Giant [7, 20] | Plant response rating, Foxtail, Giant [15, 21]
40: Plant response rating, Barnyardgrass [10, 21]
0: Barnyardgrass plant response rating [1, 19] | Wheat plant response rating [2, 19] | Plant response rating, Wheat [2, 20] | Corn plant response rating (corn (Zea mays); [19]) | Plant response rating, Corn (corn (Zea mays); [20]) | Ragweed plant response rating [3, 19] | Plant response rating, Ragweed [3, 20] | Pigweed plant response rating [4, 19] | Plant response rating, Pigweed [4, 20] | Ryegrass, Italian plant response rating [5, 19] | Plant response rating, Ryegrass, Italian [5, 20] | Kochia plant response rating (Kochia (Kochia scoparia) [6]; [19]) | Plant response rating, Kochia (Kochia (Kochia scoparia) [6]; [20]) | Foxtail, Giant plant response rating [7, 19] | Galium plant response rating [8, 19] | Plant response rating, Galium [8, 20] | Blackgrass plant response rating [9, 19] | Plant response rating, Blackgrass [9, 20] | Plant response rating, Ragweed [11, 21] | Ragweed plant response rating (0 to 100 scale, 0 is no effect, 100 is complete control) [11, 22] | Plant response rating, Pigweed [12, 21] | Pigweed plant response rating (0 to 100 scale, 0 is no effect, 100 is complete control) [12, 22] | Plant response rating, Ryegrass, Italian [13, 21] | Ryegrass, Italian plant response rating (0 to 100 scale, 0 is no effect, 100 is complete control) [13, 22] | Plant response rating, Kochia (Kochia (Kochia scoparia) [14]; [21]) | Kochia plant response rating (0 to 100 scale, 0 is no effect, 100 is complete control) (Kochia (Kochia scoparia) [14]; [22]) | Plant response rating, Barnyardgrass [16] | Plant response rating, Ducksalad [17] | Plant response rating, Rice (rice (Oryra sativa)) | Plant response rating, Sedge, Umbrella [18]
